Reference: PubChem BioAssay (NCI)
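Assay format: 96-well plates, 48-hour exposure. At the GI50, growth is halved. TGI: concentration producing complete growth inhibition.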

Key:
Experiment in all cases: NCI anticancer screen, dose series, 48 h
[1] = test system: 786-0 renal
[2] = test system: A498 renal
[3] = test system: A549 NSCLC
[4] = test system: ACHN renal
[5] = test system: CAKI-1 renal
[6] = test system: CCRF-CEM leukemia
[7] = test system: COLO 205 colon
[8] = test system: DLD-1 colon
[9] = test system: DMS 114 small cell lung
[10] = test system: DMS 273 small cell lung
[11] = test system: EKVX NSCLC
[12] = test system: HCC-2998 colon
[13] = test system: HCT-116 colon
[14] = test system: HCT-15 colon
[15] = test system: HL-60(TB) leukemia
[16] = test system: HOP-18 NSCLC
[17] = test system: HOP-62 NSCLC
[18] = test system: HOP-92 NSCLC
[19] = test system: HT29 colon
[20] = test system: K-562 leukemia
[21] = test system: KM12 colon
[22] = test system: KM20L2 colon
[23] = test system: LOX IMVI melanoma
[24] = test system: LXFL 529 NSCLC
[25] = test system: M14 melanoma
[26] = test system: MALME-3M melanoma
[27] = test system: MOLT-4 leukemia
[28] = test system: NCI-H226 lung
[29] = test system: NCI-H460 lung
[30] = test system: NCI-H522 lung
[31] = test system: OVCAR-3 ovarian
[32] = test system: OVCAR-4 ovarian
[33] = test system: OVCAR-8 ovarian
[34] = test system: RPMI-8226 leukemia
[35] = test system: SF-268 CNS
[36] = test system: SF-295 CNS
[37] = test system: SF-539 CNS
[38] = test system: SK-MEL-2 melanoma
[39] = test system: SK-MEL-28 melanoma
[40] = test system: SK-MEL-5 melanoma
[41] = test system: SK-OV-3 ovarian
[42] = test system: SN12C renal
[43] = test system: SNB-19 CNS
[44] = test system: SNB-75 CNS
[45] = test system: SW-620 colon
[46] = test system: U251 CNS
[47] = test system: XF 498 CNS
[48] = test system: IGROV1 ovarian
[49] = test system: M19-MEL melanoma
[50] = test system: NCI-H23 lung
[51] = test system: OVCAR-5 ovarian
[52] = test system: RXF 393 renal
[53] = test system: SR leukemia
[54] = test system: TK-10 renal
[55] = test system: UACC-257 melanoma
[56] = test system: UO-31 renal
[57] = test system: UACC-62 melanoma

SMILES: COc1cccc(C=O)c1[O-].COc1cccc(C=O)c1[O-].[Cu+2]
- TGI [1]: 31.9 µM
- TGI [2]: 39.4 µM
- TGI [3]: 55 µM
- TGI [4]: 30.5 µM
- GI50 [5]: 2.83 µM
- TGI [5]: 10.3 µM
- TGI [6]: 28.3 µM
- TGI [7]: 20.8 µM
- TGI [8]: 23.7 µM
- TGI [9]: 1.2 µM
- TGI [10]: 36.2 µM
- TGI [11]: 77.7 µM
- TGI [12]: 29 µM
- TGI [13]: 30.1 µM
- TGI [14]: 19.8 µM
- GI50 [15]: 21.7 µM
- TGI [15]: 46 µM
- TGI [16]: 26.8 µM
- TGI [17]: 31.7 µM
- TGI [18]: 28 µM
- TGI [19]: 46.8 µM
- TGI [20]: 17.9 µM
- TGI [21]: 30.7 µM
- TGI [22]: 32.3 µM
- TGI [23]: 37.6 µM
- TGI [24]: 16.5 µM
- TGI [25]: 31.4 µM
- TGI [26]: 20.1 µM
- TGI [27]: 18.6 µM
- TGI [28]: 68.2 µM
- TGI [29]: 73.8 µM
- TGI [30]: 19.3 µM
- TGI [31]: 21 µM
- TGI [32]: 6.85 µM
- TGI [33]: 44.7 µM
- TGI [34]: 41.4 µM
- TGI [35]: 35.3 µM
- TGI [36]: > 100 µM
- TGI [37]: 41.4 µM
- TGI [38]: 12.8 µM
- TGI [39]: 28.5 µM
- TGI [40]: 6.27 µM
- TGI [41]: 31.8 µM
- TGI [42]: 34 µM
- TGI [43]: 31.2 µM
- TGI [44]: 35.4 µM
- TGI [45]: 36.3 µM
- TGI [46]: 35.4 µM
- GI50 [47]: 6.8 µM
- TGI [47]: 19.2 µM

SMILES: Cc1ccc(-n2c(=S)[nH]c3ccc(Br)cc3c2=O)cc1
- TGI [1]: > 100 µM
- TGI [2]: > 100 µM
- TGI [3]: > 100 µM
- TGI [4]: > 100 µM
- TGI [7]: > 100 µM
- TGI [8]: > 100 µM
- TGI [9]: > 100 µM
- TGI [11]: > 100 µM
- TGI [12]: > 100 µM
- TGI [13]: > 100 µM
- TGI [14]: > 100 µM
- TGI [15]: > 100 µM
- TGI [16]: > 100 µM
- TGI [17]: > 100 µM
- TGI [18]: > 100 µM
- TGI [19]: > 100 µM
- TGI [48]: > 100 µM
- TGI [20]: > 100 µM
- TGI [21]: > 100 µM
- TGI [22]: > 100 µM
- TGI [23]: > 100 µM
- TGI [24]: > 100 µM
- TGI [49]: > 100 µM
- TGI [26]: > 100 µM
- TGI [27]: > 100 µM
- TGI [28]: > 100 µM
- TGI [50]: > 100 µM
- TGI [29]: > 100 µM
- TGI [30]: > 100 µM
- TGI [31]: > 100 µM
- TGI [32]: > 100 µM
- TGI [51]: > 100 µM
- TGI [33]: > 100 µM
- TGI [34]: > 100 µM
- TGI [52]: > 100 µM
- TGI [35]: > 100 µM
- TGI [36]: > 100 µM
- TGI [37]: > 100 µM
- TGI [38]: > 100 µM
- TGI [42]: > 100 µM
- TGI [43]: > 100 µM
- TGI [44]: > 100 µM
- TGI [53]: > 100 µM
- TGI [45]: > 100 µM
- TGI [54]: > 100 µM
- TGI [46]: > 100 µM
- TGI [55]: > 100 µM
- TGI [56]: > 100 µM
- TGI [47]: > 100 µM

SMILES: CC(C)(C)c1cc(COc2c3sc(=S)sc3c(OCc3cc(C(C)(C)C)cc(C(C)(C)C)c3)c3sc(=S)sc23)cc(C(C)(C)C)c1
- TGI [1]: > 100 µM
- TGI [2]: > 100 µM
- TGI [3]: > 100 µM
- TGI [4]: > 100 µM
- TGI [5]: > 100 µM
- TGI [6]: > 100 µM
- TGI [7]: > 100 µM
- TGI [8]: > 100 µM
- TGI [10]: > 100 µM
- TGI [11]: > 100 µM
- TGI [12]: > 100 µM
- TGI [13]: > 100 µM
- TGI [14]: > 100 µM
- TGI [15]: > 100 µM
- TGI [16]: > 100 µM
- TGI [17]: > 100 µM
- TGI [19]: > 100 µM
- TGI [48]: > 100 µM
- TGI [20]: > 100 µM
- TGI [22]: > 100 µM
- TGI [23]: > 100 µM
- TGI [24]: > 100 µM
- TGI [25]: > 100 µM
- TGI [49]: > 100 µM
- TGI [27]: > 100 µM
- TGI [50]: > 100 µM
- TGI [29]: > 100 µM
- TGI [31]: > 100 µM
- TGI [32]: > 100 µM
- TGI [33]: > 100 µM
- TGI [34]: > 100 µM
- TGI [52]: > 100 µM
- TGI [36]: > 100 µM
- TGI [37]: > 100 µM
- TGI [39]: > 100 µM
- TGI [40]: > 100 µM
- TGI [41]: > 100 µM
- TGI [42]: > 100 µM
- TGI [43]: > 100 µM
- TGI [44]: > 100 µM
- TGI [45]: > 100 µM
- TGI [54]: > 100 µM
- TGI [46]: > 100 µM
- TGI [55]: > 100 µM
- TGI [57]: > 100 µM
- TGI [47]: > 100 µM
